Earlier results in US20250325473A1, “COLLAGEN-IMPREGNATED DEVICES AND METHODS FOR TREATMENT OF CANCER” (COLLAGEN MATRIX, INC., priority 2022, published 2025).
Square brackets hold non-standard residues; d marks the D form. Ends that are not written are not given here. Hyp = O=C(O)[C@@H]1C[C@@H](O)CN1

Experiments:
Parameters in all cases: key: A plus sign (+) indicates a response similar in peptides II-22, III-23, or GPS-GFO (control); a minus sign (−) Indicates less than 20% of control; +/−: +/ − indicates 20-80% of control
His-DDR2 or DS2-Fc = details: binding to His-DDR2 or DS2-Fc, response relative to control peptides II-22, III-23 or GPS-GFO; guest sequences flanked by (GPP)
Chain of His-DDR2 or DS2-Fc (Q16832 30-185 limits assumed): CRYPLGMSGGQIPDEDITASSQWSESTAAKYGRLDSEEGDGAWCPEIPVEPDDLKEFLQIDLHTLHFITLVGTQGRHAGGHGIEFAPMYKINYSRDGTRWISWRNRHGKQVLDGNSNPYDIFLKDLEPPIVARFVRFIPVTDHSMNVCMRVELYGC

DDR2-Fc or DDR2-Fc2 = details: binding to DDR2-Fc or DDR2-Fc2, response relative to control peptides II-22, III-23 or GPS-GFO; includes data from Konitsiotis et al. 2008
Chain of DDR2-Fc or DDR2-Fc2 (Q16832 30-185 limits assumed): as above

DDR1-Fc or DDR1-Fc2 = details: binding to DDR1-Fc or DDR1-Fc2, response relative to control peptides II-22, III-23 or GPS-GFO; guest sequences flanked by (GPP)
Chain of DDR1-Fc or DDR1-Fc2 (Q08345 31-185 limits assumed): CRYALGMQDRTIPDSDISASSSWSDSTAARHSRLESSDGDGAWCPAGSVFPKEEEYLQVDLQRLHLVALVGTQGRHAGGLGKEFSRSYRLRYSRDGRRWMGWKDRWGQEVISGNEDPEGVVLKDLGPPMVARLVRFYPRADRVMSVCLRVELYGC

Substance | DDR2 binding (His-DDR2 or DS2-Fc) | DDR2 binding (DDR2-Fc or DDR2-Fc2) | DDR1 binding (DDR1-Fc or DDR1-Fc2)
GPSGPRGQO (GPSGPRGQ[Hyp]; not fully specified) [GPS-GQO] | − (a minus sign (−) Indicates less than 20% of control) | − (a minus sign (−) indicates less than 10% of control) | − (a minus sign (−) indicates less than 10% of control)
GPSGPRGQOGVMGAO (GPSGPRGQ[Hyp]GVMGA[Hyp]; not fully specified) [GPS-GFO-14A] | − (a minus sign (−) Indicates less than 20% of control) | − (a minus sign (−) indicates less than 10% of control) | − (a minus sign (−) indicates less than 10% of control)
GVMGFO (GVMGF[Hyp]; not fully specified) | +/− (+/ − indicates 20-80% of control) | +/− ((+/− indicates 30-80% of control) | +/− ((+/− indicates 30-80% of control)
GARGQAGVMGFO (GARGQAGVMGF[Hyp]; not fully specified) [CI-alpha1] | + | + | +
GQOGVMGFO (GQ[Hyp]GVMGF[Hyp]; not fully specified) [GQO-GFO] | + | +/− ((+/− indicates 30-80% of control) | +/− ((+/− indicates 30-80% of control)
GPSGPRGQOGAMGFO (GPSGPRGQ[Hyp]GAMGF[Hyp]; not fully specified) [GPS-GFO-11A] | + | + | +
GFOGER [GPOGER] | − (a minus sign (−) Indicates less than 20% of control) | − (a minus sign (−) indicates less than 10% of control) | − (a minus sign (−) indicates less than 10% of control)
GPSGPRGQOGVAGFO (GPSGPRGQ[Hyp]GVAGF[Hyp]; not fully specified) [GPS-GFO-12A] | + | (+)/− ((+)/− indicates 20-30% of control) | − (a minus sign (−) indicates less than 10% of control)
GPSGPAGQOGVMGFO (GPSGPAGQ[Hyp]GVMGF[Hyp]; not fully specified) [GPS-GFO-6A] | + | +/− ((+/− indicates 30-80% of control) | +/− ((+/− indicates 30-80% of control)
GPRGQOGVMGFOGPK (GPRGQ[Hyp]GVMGF[Hyp]GPK; not fully specified) [GPR-GPK] | − (a minus sign (−) Indicates less than 20% of control) | + | (+)/− ((+)/− indicates 20-30% of control)
GAKGSAGAOGIAGAOGFOGPRGPOGPQ (GAKGSAGA[Hyp]GIAGA[Hyp]GF[Hyp]GPRGP[Hyp]GPQ; not fully specified) [II- ? 3, label partly illegible] |  | + | − (a minus sign (−) indicates less than 10% of control)
GPSGARGQOGVMGFO (GPSGARGQ[Hyp]GVMGF[Hyp]; not fully specified) [GPS-GFO-5A] | − (a minus sign (−) Indicates less than 20% of control) | + | +
GPSGPRGAOGVMGFO (GPSGPRGA[Hyp]GVMGF[Hyp]; not fully specified) [GPS-GFO-8A] | +/− (+/ − indicates 20-80% of control) | + | +
GARGAQGPOGATGFOGAAGRVGPOGSN (GARGAQGP[Hyp]GATGF[Hyp]GAAGRVGP[Hyp]GSN; not fully specified) [II- ? 9, label partly illegible] |  | +/− ((+/− indicates 30-80% of control) | +/− ((+/− indicates 30-80% of control)
GPSGPRGQOGVMGFA (GPSGPRGQ[Hyp]GVMGFA; not fully specified) [GPS-CFO-15A] | +/− (+/ − indicates 20-80% of control) | +/− ((+/− indicates 30-80% of control) | (+)/− ((+)/− indicates 20-30% of control)
GPSGPRGQOGVMGFO [GPS-GFO] | + | + | +
GPSGPRGQAGVMGFO (GPSGPRGQAGVMGF[Hyp]; not fully specified) [GPS-GFO-9A] | + | + | +
GPRGQOGVMGFO [GPR-GFO] | + | + | +
GASGDRGPOGPVGPOGLTGPAGEOGRE [II-46] |  | − (a minus sign (−) indicates less than 10% of control) | +/− ((+/− indicates 30-80% of control)
GARGEOGNIGFO (GARGE[Hyp]GNIGF[Hyp]; not fully specified) [CI-alpha2] | − (a minus sign (−) Indicates less than 20% of control) | (+)/− ((+)/− indicates 20-30% of control) | +/− ((+/− indicates 30-80% of control)
GFOGPK (GF[Hyp]GPK; not fully specified) | − (a minus sign (−) Indicates less than 20% of control) | − (a minus sign (−) indicates less than 10% of control) | − (a minus sign (−) indicates less than 10% of control)
(GAP) -GPRGQOGVMGFO-(GAP) (GAPGAPGAPGAPGAPGPRGQ[Hyp]GVMGF[Hyp]GAPGAPGAPGAPGAP; not fully specified) [GAP-GPR-GFO, non-helical peptide flanked by (GAP) instead of (GPP)] | +/− (+/ − indicates 20-80% of control) | − (a minus sign (−) indicates less than 10% of control) | − (a minus sign (−) indicates less than 10% of control)
GARGQOGVMGFO (GARGQ[Hyp]GVMGF[Hyp]; not fully specified) [GAR-GFO] |  |  | +
GPOGPQGVKGERGSDGGDGAAGFOGAR [III- ? 9] |  | + | − (a minus sign (−) indicates less than 10% of control)
GPSGPRGQOGVM (GPSGPRGQ[Hyp]GVM; not fully specified) [GPS-GVN] | − (a minus sign (−) Indicates less than 20% of control) | − (a minus sign (−) indicates less than 10% of control) | − (a minus sign (−) indicates less than 10% of control)

The next lines start with results.

DDR2 binding (His-DDR2 or DS2-Fc) | DDR2 binding (DDR2-Fc or DDR2-Fc2) | Substance | DDR1 binding (DDR1-Fc or DDR1-Fc2)
 | + | GERGLOGPOGIKGPAGIDGFOGMKGHR [III-5] | − (a minus sign (−) indicates less than 10% of control)
 | + | GAOGPLGIAGITGARGLAGPOGMOGPR (GA[Hyp]GPLGIAGITGARGLAGP[Hyp]GM[Hyp]GPR; not fully specified) [III-44] | − (a minus sign (−) indicates less than 10% of control)
 | + | GLAGRQGIVGLDGQRGERGFOGLOGPS [II-44] | − (a minus sign (−) indicates less than 10% of control)
 | +/− ((+/− indicates 30-80% of control) | GARGFOGTOGLOGVKGRRGYOGLDGAK [II-5] | − (a minus sign (−) indicates less than 10% of control)
+ | + | GAOGEDGROGPOGPQGARGQOGVMGFO (GA[Hyp]GEDGR[Hyp]GP[Hyp]GPQGARGQ[Hyp]GVMGF[Hyp]; not fully specified) [II-22] | +
+ | + | GQOGVMGFOGPKGANGEOGKAGEKGLO (GQ[Hyp]GVMGF[Hyp]GPKGANGE[Hyp]GKAGEKGL[Hyp]; not fully specified) [II-23] | − (a minus sign (−) indicates less than 10% of control)
+ | + | GPOGPSGPRGQOGVMGFOGPKGNDGAO (GP[Hyp]GPSGPRGQ[Hyp]GVMGF[Hyp]GPKGNDGA[Hyp]; not fully specified) [III-23] | +
